Measurements reported in ChEMBL document CHEMBL1201862, “PubChem BioAssay data set” (2004).
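Step 1: Grow cells in 96-well plates. Step 2: Expose to compound for 48 hours at 5 concentrations. Step 3: Interpolate endpoints linearly; if unreached, use highest concentration. At the GI50, growth is halved.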 The source made the active and inactive calls. Rule as the data show it: active = GI50 up to about 1.1 µM and inactive = higher.

Key:
Test in all cases: inhibition of tumour cell growth, NCI panel, 48 h
EKVX = test system: EKVX
HT-29 = test system: HT-29
K562 = test system: K562
KM12 = test system: KM12
NCI-H23 = test system: NCI-H23
NCI-H460 = test system: NCI-H460
OVCAR-3 = test system: OVCAR-3
OVCAR-4 = test system: OVCAR-4
OVCAR-5 = test system: OVCAR-5
SF-295 = test system: SF-295
SF-539 = test system: SF-539
SNB-19 = test system: SNB-19
SNB-78 = test system: SNB-78
U-251 = test system: U-251
UACC-62 = test system: UACC-62
MOLT-4 = test system: MOLT-4
UO-31 = test system: UO-31

Measured: GI50

CCOC(=O)N1C(c2ccccc2)C=CC(c2ccccc2)N1C(=O)OCC (centres undefined)
inactive: EKVX > 100 µM | HT-29 > 100 µM | K562 > 100 µM | KM12 > 100 µM | NCI-H23 > 100 µM | NCI-H460 > 100 µM | OVCAR-3 > 100 µM | OVCAR-4 > 100 µM | OVCAR-5 > 100 µM | SF-295 > 100 µM | SF-539 > 100 µM | SNB-19 > 100 µM | SNB-78 > 100 µM | U-251 > 100 µM | UACC-62 > 100 µM

CCCCOCc1cc(CN2CCN(C)CC2)c(O)c2ncccc12
inactive: EKVX 23.5 µM | HT-29 31.6 µM | K562 3.26 µM | KM12 21.1 µM | MOLT-4 4.79 µM | NCI-H23 14.5 µM | NCI-H460 7.46 µM | OVCAR-3 7.59 µM | OVCAR-4 21.5 µM | OVCAR-5 24.4 µM | SF-295 4.17 µM | SF-539 19.4 µM | SNB-19 30.8 µM | SNB-78 31 µM | U-251 12.5 µM | UACC-62 13.9 µM | UO-31 9.66 µM

COc1ccc(C(=O)C(C(=O)C(=O)Nc2nc3ccc(OC)cc3s2)c2ccc(OC)cc2)cc1 (centres undefined)
inactive: EKVX > 100 µM | HT-29 > 100 µM | K562 > 100 µM | KM12 > 100 µM | MOLT-4 > 100 µM | NCI-H23 > 100 µM | NCI-H460 > 100 µM | OVCAR-3 > 100 µM | OVCAR-4 > 100 µM | OVCAR-5 > 100 µM | SF-295 > 100 µM | SF-539 > 100 µM | SNB-19 > 100 µM | SNB-78 > 100 µM | U-251 > 100 µM | UACC-62 > 100 µM | UO-31 89.5 µM

OCCc1cnco1
inactive: EKVX > 100 µM | HT-29 > 100 µM | K562 > 100 µM | KM12 > 100 µM | MOLT-4 > 100 µM | NCI-H23 > 100 µM | NCI-H460 > 100 µM | OVCAR-3 > 100 µM | OVCAR-4 > 100 µM | SF-295 > 100 µM | SF-539 > 100 µM | SNB-19 > 100 µM | SNB-78 > 100 µM | U-251 > 100 µM | UACC-62 > 100 µM

COc1ccc(C(=O)NCCN(C)C)c2nc3ccccc3nc12
inactive: EKVX 6.41 µM | HT-29 2.76 µM | K562 2.05 µM | KM12 4.82 µM | MOLT-4 1.94 µM | NCI-H23 4.72 µM | OVCAR-3 5.25 µM | OVCAR-4 4.09 µM | OVCAR-5 8.61 µM | SF-295 6.82 µM | SF-539 4.57 µM | SNB-19 6.01 µM | SNB-78 3.72 µM | U-251 4.79 µM | UACC-62 5.38 µM

Nc1ncnc2c1ncn2C1OC(CSCC(F)(F)F)C(O)C1O (centres undefined)
inactive: EKVX > 100 µM | HT-29 > 100 µM | K562 > 100 µM | KM12 > 100 µM | MOLT-4 > 100 µM | NCI-H23 > 100 µM | NCI-H460 > 100 µM | OVCAR-3 > 100 µM | OVCAR-4 > 100 µM | OVCAR-5 > 100 µM | SF-295 > 100 µM | SF-539 > 100 µM | SNB-19 > 100 µM | SNB-78 > 100 µM | U-251 > 100 µM | UACC-62 > 100 µM | UO-31 > 100 µM

Nc1ccn(CCOC(=O)c2ccccc2)c(=O)n1
inactive: EKVX > 100 µM | HT-29 > 100 µM | K562 > 100 µM | KM12 > 100 µM | NCI-H460 > 100 µM | OVCAR-3 > 100 µM | OVCAR-4 > 100 µM | OVCAR-5 > 100 µM | SF-295 > 100 µM | SF-539 > 100 µM | SNB-78 > 100 µM | U-251 > 100 µM | UACC-62 > 100 µM | UO-31 > 100 µM

CN(C(=O)C12C3C4C1C1C2C3C41C(=O)N(C)C(C)(C)C)C(C)(C)C (centres undefined)
inactive: EKVX > 50 µM | HT-29 > 50 µM | K562 > 50 µM | MOLT-4 > 50 µM | OVCAR-3 > 50 µM | SF-295 > 50 µM | SF-539 > 50 µM | SNB-19 > 50 µM | SNB-78 > 50 µM | U-251 > 50 µM | UACC-62 > 50 µM | UO-31 > 50 µM

N#C/C(=C\c1ccccc1O)C(N)=O
inactive: EKVX 59.4 µM | HT-29 86.9 µM | K562 51.2 µM | KM12 56.5 µM | MOLT-4 62.7 µM | NCI-H23 82.4 µM | NCI-H460 55.7 µM | OVCAR-3 48.5 µM | OVCAR-4 > 100 µM | OVCAR-5 > 100 µM | SF-295 > 100 µM | SF-539 > 100 µM | SNB-19 71.8 µM | SNB-78 46 µM | U-251 > 100 µM | UACC-62 50.1 µM | UO-31 43.6 µM
